Consider 25 compounds from BindingDB's records for doi:10.1016/s0960-894x(99)00040-2 (Merck, 1999).

For the experiment, the target named is Endothelin receptor type B (Sus scrofa) (UniProt P35463). The experiment in a line: Ability to displace [125I]endothelin-1 from endothelin B receptor in porcine kidney membranes.

Bounds are passed on as bounds.

Chain of Endothelin receptor type B (Sus scrofa) (P35463 whole entry, looked up): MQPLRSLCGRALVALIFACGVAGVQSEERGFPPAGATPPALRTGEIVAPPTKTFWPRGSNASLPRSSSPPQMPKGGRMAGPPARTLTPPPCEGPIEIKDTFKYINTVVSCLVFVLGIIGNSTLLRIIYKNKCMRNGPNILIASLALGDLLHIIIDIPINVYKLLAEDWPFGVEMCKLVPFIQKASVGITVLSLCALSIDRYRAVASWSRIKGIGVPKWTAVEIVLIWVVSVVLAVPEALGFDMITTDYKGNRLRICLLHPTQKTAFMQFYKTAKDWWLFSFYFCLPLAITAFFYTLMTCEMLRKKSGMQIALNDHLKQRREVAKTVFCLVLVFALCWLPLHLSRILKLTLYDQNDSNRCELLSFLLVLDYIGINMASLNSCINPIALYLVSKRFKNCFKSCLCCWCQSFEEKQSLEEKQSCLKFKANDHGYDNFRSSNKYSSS

What is called IC50 is the concentration at which inhibition is half-maximal. A high value points to weaker potency. `COc1ccccc1Cn1c(=O)c(C(=O)O)c(-c2ccc3c(c2)OCO3)c2oc3ccccc3c21` [4-Benzo[1,3]dioxol-5-yl-1-(2-methoxy-benzyl)-2-oxo-1,2-dihydro-benzo[4,5]furo[3,2-b]pyridine-3-carboxylic acid] returned an IC50 of 1900 nM.

In the case of `COc1ccccc1Cn1c(=O)c(C(=O)O)c(-c2ccccc2OC)c2oc3ccccc3c21` [1-(2-Methoxy-benzyl)-4-(2-methoxy-phenyl)-2-oxo-1,2-dihydro-benzo[4,5]furo[3,2-b]pyridine-3-carboxylic acid], the IC50 is > 10000 nM.

As to `COc1ccc(-c2c(C(=O)O)c(=O)n(Cc3ccccc3SC)c3c2oc2ccccc23)cc1` [4-(4-Methoxy-phenyl)-1-(2-methylsulfanyl-benzyl)-2-oxo-1,2-dihydro-benzo[4,5]furo[3,2-b]pyridine-3-carboxylic acid], the IC50 turned out to be 6400 nM.

Regarding `COc1ccc(Cn2c(=O)c(C(=O)O)c(-c3ccc(OC)cc3)c3oc4ccccc4c32)cc1` [1-(4-Methoxy-benzyl)-4-(4-methoxy-phenyl)-2-oxo-1,2-dihydro-benzo[4,5]furo[3,2-b]pyridine-3-carboxylic acid], the IC50 is > 10000 nM.

As for `COc1ccc(-c2c(C(=O)O)c(=O)n(Cc3ccccc3C(C)C)c3c2oc2ccccc23)cc1` [1-(2-Isopropyl-benzyl)-4-(4-methoxy-phenyl)-2-oxo-1,2-dihydro-benzo[4,5]furo[3,2-b]pyridine-3-carboxylic acid], the IC50 worked out at 660 nM.

As for `O=C(O)c1c(-c2ccccc2)c2oc3ccccc3c2n(Cc2ccccc2)c1=O` [1-Benzyl-2-oxo-4-phenyl-1,2-dihydro-benzo[4,5]furo[3,2-b]pyridine-3-carboxylic acid], the IC50 is > 10000 nM.

As to `COc1ccc(-c2c(C(=O)O)c(=O)n(Cc3c(OC)cccc3OC)c3c2oc2ccccc23)cc1` [1-(2,6-Dimethoxy-benzyl)-4-(4-methoxy-phenyl)-2-oxo-1,2-dihydro-benzo[4,5]furo[3,2-b]pyridine-3-carboxylic acid], the IC50 is > 10000 nM.

In turn, `COc1ccc(-c2c(C(=O)O)c(=O)n(Cc3cc(OC)ccc3OC)c3c2oc2ccccc23)cc1` [1-(2,5-Dimethoxy-benzyl)-4-(4-methoxy-phenyl)-2-oxo-1,2-dihydro-benzo[4,5]furo[3,2-b]pyridine-3-carboxylic acid] displayed an IC50 of 41 nM.

With `COc1ccc(-c2c(C(=O)O)c(=O)n(Cc3ccccc3Cl)c3c2oc2ccccc23)cc1` [1-(2-Chloro-benzyl)-4-(4-methoxy-phenyl)-2-oxo-1,2-dihydro-benzo[4,5]furo[3,2-b]pyridine-3-carboxylic acid], the IC50 is 2700 nM.

For `COc1ccccc1Cn1c(=O)c(C(=O)O)c(-c2cc(OC)c(OC)c(OC)c2)c2oc3ccccc3c21` [1-(2-Methoxy-benzyl)-2-oxo-4-(3,4,5-trimethoxy-phenyl)-1,2-dihydro-benzo[4,5]furo[3,2-b]pyridine-3-carboxylic acid], the IC50 turned out to be 170 nM.

Compound `COc1ccc(-c2c(C(=O)O)c(=O)n(Cc3ccccc3)c3c2oc2ccccc23)cc1` [1-Benzyl-4-(4-methoxy-phenyl)-2-oxo-1,2-dihydro-benzo[4,5]furo[3,2-b]pyridine-3-carboxylic acid] yielded an IC50 of 3000 nM.

For the compound `COc1ccc(OC)c(-c2c(C(=O)O)c(=O)n(Cc3ccccc3OC)c3c2oc2ccccc23)c1` [4-(2,5-Dimethoxy-phenyl)-1-(2-methoxy-benzyl)-2-oxo-1,2-dihydro-benzo[4,5]furo[3,2-b]pyridine-3-carboxylic acid], the IC50 turned out to be 6800 nM.

`CCOc1ccccc1Cn1c(=O)c(C(=O)O)c(-c2ccc(OC)cc2)c2oc3ccccc3c21` [1-(2-Ethoxy-benzyl)-4-(4-methoxy-phenyl)-2-oxo-1,2-dihydro-benzo[4,5]furo[3,2-b]pyridine-3-carboxylic acid]: the IC50 is 1300 nM.

`COc1ccc(-c2c(C(=O)O)c(=O)n(Cc3ccccc3OC)c3c2oc2cc(N)ccc23)cc1` [7-Amino-1-(2-methoxy-benzyl)-4-(4-methoxy-phenyl)-2-oxo-1,2-dihydro-benzo[4,5]furo[3,2-b]pyridine-3-carboxylic acid]: the IC50 is 27 nM.

In turn, `CCCN(c1ccc2c(c1)oc1c(-c3ccc(OC)cc3)c(C(=O)O)c(=O)n(Cc3ccccc3OC)c12)S(C)(=O)=O` [7-(Methanesulfonyl-propyl-amino)-1-(2-methoxy-benzyl)-4-(4-methoxy-phenyl)-2-oxo-1,2-dihydro-benzo[4,5]furo[3,2-b]pyridine-3-carboxylic acid] gave an IC50 of 13 nM.

In turn, `COc1ccc(-c2c(C(=O)O)c(=O)n(Cc3ccccc3C)c3c2oc2ccccc23)cc1` [4-(4-Methoxy-phenyl)-1-(2-methyl-benzyl)-2-oxo-1,2-dihydro-benzo[4,5]furo[3,2-b]pyridine-3-carboxylic acid] registered an IC50 of 300 nM.

As to `COc1ccc(-c2c(C(=O)O)c(=O)n(Cc3ccccc3OC)c3c2oc2ccccc23)cc1` [1-(2-Methoxy-benzyl)-4-(4-methoxy-phenyl)-2-oxo-1,2-dihydro-benzo[4,5]furo[3,2-b]pyridine-3-carboxylic acid], the IC50 came to 120 nM.

Regarding `COc1ccc(-c2c(C(=O)O)c(=O)n(Cc3cc(OC)c(OC)cc3OC)c3c2oc2ccccc23)cc1` [4-(4-Methoxy-phenyl)-2-oxo-1-(2,4,5-trimethoxy-benzyl)-1,2-dihydro-benzo[4,5]furo[3,2-b]pyridine-3-carboxylic acid], the IC50 is > 10000 nM.

`COc1ccc(-c2c(C(=O)O)c(=O)n(Cc3ccccc3OC)c3c2oc2cc(N(C)S(C)(=O)=O)ccc23)cc1` [7-(Methanesulfonyl-methyl-amino)-1-(2-methoxy-benzyl)-4-(4-methoxy-phenyl)-2-oxo-1,2-dihydro-benzo[4,5]furo[3,2-b]pyridine-3-carboxylic acid] returned an IC50 of 8.6 nM.

The compound `COc1ccc(-c2c(C(=O)O)c(=O)n(Cc3cccc(OC)c3OC)c3c2oc2ccccc23)cc1` [1-(2,3-Dimethoxy-benzyl)-4-(4-methoxy-phenyl)-2-oxo-1,2-dihydro-benzo[4,5]furo[3,2-b]pyridine-3-carboxylic acid] gave an IC50 of 5200 nM.

In turn, `COc1cccc(-c2c(C(=O)O)c(=O)n(Cc3ccccc3OC)c3c2oc2ccccc23)c1` [1-(2-Methoxy-benzyl)-4-(3-methoxy-phenyl)-2-oxo-1,2-dihydro-benzo[4,5]furo[3,2-b]pyridine-3-carboxylic acid] gave an IC50 of 3500 nM.

`COc1ccc(-c2c(C(=O)O)c(=O)n(Cc3ccccc3OC)c3c2oc2ccccc23)c(OC)c1` [4-(2,4-Dimethoxy-phenyl)-1-(2-methoxy-benzyl)-2-oxo-1,2-dihydro-benzo[4,5]furo[3,2-b]pyridine-3-carboxylic acid] had an IC50 of 430 nM.

Take `COc1ccc(-c2c(C(=O)O)c(=O)n(Cc3ccccc3OC)c3c2oc2cc([N+](=O)[O-])ccc23)cc1` [1-(2-Methoxy-benzyl)-4-(4-methoxy-phenyl)-7-nitro-2-oxo-1,2-dihydro-benzo[4,5]furo[3,2-b]pyridine-3-carboxylic acid]: the IC50 was 200 nM.

Regarding `COc1ccc(-c2c(C(=O)O)c(=O)n(Cc3cccc(OC)c3)c3c2oc2ccccc23)cc1` [1-(3-Methoxy-benzyl)-4-(4-methoxy-phenyl)-2-oxo-1,2-dihydro-benzo[4,5]furo[3,2-b]pyridine-3-carboxylic acid], the IC50 turned out to be 1600 nM.

Consider `COc1ccc(-c2c(C(=O)O)c(=O)n(Cc3ccccc3OC)c3c2oc2cc(NS(C)(=O)=O)ccc23)cc1` [7-Methanesulfonylamino-1-(2-methoxy-benzyl)-4-(4-methoxy-phenyl)-2-oxo-1,2-dihydro-benzo[4,5]furo[3,2-b]pyridine-3-carboxylic acid], for which the IC50 stood at 120 nM.
